According to patent US11274106B2, “Topoisomerase inhibitors with antibacterial and anticancer activity” (THE BOARD OF TRUSTEES OF THE UNIVERSITY OF ILLINOIS, priority 2017, dated 2022):
≈ marks a conversion by molar mass, not a printed value. Read-outs that look alike come from different tables or passages of the source.

Assays:
Type in all cases: cell-based
[1] = system: HOS; assay: Antiproliferative SRB assay, HOS; conditions: Homo sapiens, 72 h, Osteosarcoma, mean ± SEM
From the text: (§1) Topoisomerase inhibitors such as DOX are used as single agent and in combination therapy to treat a wide-range of cancer types.

[2] = system: Jurkat; assay: Cell viability Alamar Blue assay, Jurkat; conditions: Homo sapiens, 72 h, Leukemia, mean ± SEM
From the text: as §1

[3] = system: H460; assay: Antiproliferative SRB assay, H460; conditions: Homo sapiens, NCI-H460, 72 h, Lung cancer, mean ± SEM
From the text: as §1

[4] = system: BT-474; assay: Antiproliferative SRB assay, BT-474; conditions: for IC50: Homo sapiens, BT-474, 72 h, Breast cancer, mean ± SEM
From the text: as §1

[5] = target: T1, Top1 (Homo sapiens, UniProt P11387); assay: Top1 degradation by Western blot, MDA-MB-231; parameters: dose or concentration left out as unconfirmed; conditions: 4, and 6 hours, then 30-minute drug-free media
T1 sequence (P11387 1-765): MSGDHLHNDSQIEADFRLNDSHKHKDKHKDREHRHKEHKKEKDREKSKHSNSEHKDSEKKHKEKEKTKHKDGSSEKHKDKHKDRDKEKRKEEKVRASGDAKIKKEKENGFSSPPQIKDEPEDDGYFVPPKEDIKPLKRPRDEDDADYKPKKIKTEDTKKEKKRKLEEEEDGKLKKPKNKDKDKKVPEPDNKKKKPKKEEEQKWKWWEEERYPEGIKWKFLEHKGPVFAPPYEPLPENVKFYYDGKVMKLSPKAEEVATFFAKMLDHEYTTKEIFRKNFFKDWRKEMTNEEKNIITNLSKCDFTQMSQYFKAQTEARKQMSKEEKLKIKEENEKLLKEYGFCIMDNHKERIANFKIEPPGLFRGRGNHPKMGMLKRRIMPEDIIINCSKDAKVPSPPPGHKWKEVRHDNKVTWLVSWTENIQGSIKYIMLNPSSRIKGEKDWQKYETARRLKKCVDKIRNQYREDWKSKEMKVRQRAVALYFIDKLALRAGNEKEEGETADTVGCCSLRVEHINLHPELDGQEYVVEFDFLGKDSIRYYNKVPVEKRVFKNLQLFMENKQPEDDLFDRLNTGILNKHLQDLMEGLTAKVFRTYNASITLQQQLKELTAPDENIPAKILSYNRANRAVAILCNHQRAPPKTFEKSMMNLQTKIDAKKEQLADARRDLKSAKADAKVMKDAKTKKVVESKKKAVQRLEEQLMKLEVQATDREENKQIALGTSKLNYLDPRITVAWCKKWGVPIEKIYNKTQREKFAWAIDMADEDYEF
Description: (§2) FIG. 4. Level of Top1-degradation predicts cell line sensitivity. (a) Cells treated with 25 μM of compound for indicated times followed by a 30 minute incubation with drug-free media. Cells were lysed with RIPA and Top1 levels assessed by Western Blot. (b) Degradation of Top1 results in a right-ward shift in the dose-response curve. Effect is most pronounced in Top1-poisons (Ph-6DNM-NH3, CPT) than Top1 catalytic inhibitor (6DNM-Pyr). Cell death measured by SRB assay after 72 hour of compound exposure (n≥3 biological replicates, error bars show SEM).
(§3) This difference in mechanism of action between Ph-6DNM-NH3 and 6DNM-Pyr may provide an explanation of the differences in cell line sensitivities between the different DNM derivatives. […] This downregulation serves as a resistance mechanism and the level of Top1 degradation is correlated with reduced sensitivity to CPT. To determine if a similar mechanism is responsible for the reduced sensitivity to Ph-6DNM-NH3 and its derivatives in certain cell lines, the effects of Ph-6DNM-NH3 and 6DNM-Pyr were compared to that of CPT in […] and BT-474, two cancer cell lines known to be deficient and proficient in Top1 degradation, respectively. Cells were treated with 50 μM Ph-6DNM-NH3, 6DNM-Pyr, or CPT for 2, 4, and 6 hours. Following a 30-minute incubation with drug-free media to allow for the reversal of any Top1cc formed, cells were lysed and Top1 concentrations assessed by Western blot (FIG. 4a).

[6] = system: MDA-MB-231 triple negative breast cancer cells; assay: Antiproliferative SRB assay, MDA-MB-231; conditions: for IC50: SRB assay, mean ± SEM
Description: FIG. 1. […] Cell death measured by SRB assay after 72 hour of compound exposure (n≥3 biological replicates, error bars show SEM). IC50 values given as mean±SEM from ≥3 biological replicates.
To investigate the feasibility of developing a class of antitumor antibiotics based upon the DNM scaffold, the ability of the DNM to exert an antiproliferative effect against MDA-MB-231 breast cancer cells was evaluated.

[7] = system: E. coli; assay: Antibacterial MIC, microbroth dilution, E. coli
Description: (§4) To investigate this possibility, the antibacterial effects of the DNM derivatives was assessed against strains of E. coli, S. aureus, and MRSA using the microbroth dilution method (Table 2).

[8] = target: T1, Top1; assay: Top1 degradation by Western blot, BT-474; conditions: 50 μM for 2, 4, and 6 hours, then 30-minute drug-free media
Description: as §2, §3

[9] = system: S. aureus; assay: Antibacterial MIC, microbroth dilution, S. aureus
Description: as §4

[10] = system: ES-2; assay: Antiproliferative SRB assay, ES-2; conditions: Homo sapiens, ES-2, 72 h, Cervical cancer (footnote f), mean ± SEM
From the text: as §1

[11] = system: HeLa; assay: Antiproliferative SRB assay, HeLa; conditions: Homo sapiens, 72 h, Ovarian cancer (footnote e), mean ± SEM
From the text: as §1

[12] = system: HCT-116; assay: Antiproliferative SRB assay, HCT-116; conditions: Homo sapiens, HCT-116, 72 h, Colon cancer, mean ± SEM
From the text: as §1

[13] = Homo sapiens, MDA-MB-231, 72 h, Breast cancer, read-out: 72 hour IC50, MDA-MB-231

Cc1cc(=O)n2c3c(c4c(cc13)c1ccccc1c(=O)n4C)OCC2CN (stereo not shown) [Compound 15]
IC50 [1]: 17 ± 1 nM | IC50 [2]: 290 ± 30 nM | IC50 [3]: 12 ± 2 nM | Effectiveness in BT-474 after Top1 degradation ([4]; FIG. 4b, 72 hour): similarly reduced, however to a lesser extent | IC50 [4]: 690 ± 50 nM | Top1 levels by Western blot in MDA-MB-231 [5]: minimal differences in Top1 relative to untreated cells | IC50 [6, 13]: 30 ± 6 nM | Improvement in potency relative to 6DNM-NH3 ([6]; MDA-MB-231, Table 1): 4.5 fold | IC50 ([6]; 72 hour compound exposure, read-out: MDA-MB-231 IC50): 48 ± 8 nM | E. coli MIC [7]: 0.25 µg/mL | Top1 levels by Western blot in BT-474 [8]: time-dependent decrease in the levels of Top1 | S. aureus MIC [9]: 1 µg/mL | IC50 [10]: 28 ± 6 nM | IC50 [11]: 56 ± 5 nM | IC50 [12]: 37 ± 13 nM

Cc1cc(=O)n(C)c2c3c4c(cc12)c(C)cc(=O)n4C(CN1CCCC1)CO3 (stereo not shown) [Compound 20]
IC50 [1]: 16 ± 2 nM | IC50 [2]: 20 ± 6 nM | IC50 [3]: 6.6 ± 0.5 nM | IC50 [4]: 91 ± 4 nM | Top1 levels by Western blot in MDA-MB-231 [5]: minimal differences in Top1 relative to untreated cells | IC50 [6, 13]: 14 ± 1 nM | IC50 ([6]; Homo sapiens, MDA-MB-231, 72 h, 72 hour compound exposure, read-out: MDA-MB-231 IC50): 14 ± 1 nM | MIC ([7]; Escherichia coli): 1 µg/mL (≈ 2.64 µM) | Top1 levels by Western blot in BT-474 [8]: minimal effect | MIC ([9]; Staphylococcus aureus): 0.5 µg/mL (≈ 1.32 µM) | IC50 [10]: 17 ± 4 nM | IC50 [11]: 27 ± 1 nM | IC50 [12]: 9 ± 1 nM
